# Source: the supplement of paper PMC10883282
# ± gives the standard deviation of the averaged measurements.
# How the values were obtained:
# Experiment in all cases: relative viability vs DMSO control (72 h) (fraction); higher = more viable cells
# [1] = tested on: HT1080
# How it was run: (§1)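 Plates held 72 h at 37 °C and 5% CO2 contained sarcoma cell lines seeded in 384-well format to reach 80–90% confluence, plus 2.5 µl of serially diluted compound added after 24 h. Source plate concentrations ran from 10 mM to 0.0002 mM, with 0.1% DMSO as vehicle and a 5 µM positive control. Percent growth from ATPLite readings, averaged over up to triplicate wells, gave relative viability. Values were rescaled with 1 as full and 0 as none.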
# [2] = tested on: SW872
# How it was run: as §1
# [3] = tested on: SW1353
# How it was run: as §1
# [4] = tested on: KHOS-NP
# How it was run: as §1
# [5] = tested on: RD-ES
# How it was run: as §1
# [6] = tested on: MES-SA
# How it was run: as §1
# [7] = tested on: SK-ES-1
# How it was run: as §1
# [8] = tested on: SW684
# How it was run: as §1
# [9] = tested on: SK-LMS-1
# How it was run: as §1
# [10] = tested on: G401
# How it was run: as §1
# [11] = tested on: VA-ES-BJ
# How it was run: as §1
# [12] = tested on: RD
# How it was run: as §1
smiles,measurement,setting,value
NC(=O)c1cnc2[nH]ccc2c1N[C@@H]1[C@@H]2CC3C[C@H]1C[C@@](O)(C3)C2 [Peficitinib],relative viability,[1]; 0.00017 µM,1.058 ± 0.0072
same,relative viability,[1]; 0.00051 µM,1.05 ± 0.042
same,relative viability,[1]; 0.00152 µM,1.06 ± 0.016
same,relative viability,[1]; 0.00457 µM,1.03 ± 0.011
same,relative viability,[1]; 0.01372 µM,1.03 ± 0.028
same,relative viability,[1]; 0.04115 µM,1.06 ± 0.012
same,relative viability,[1]; 0.1235 µM,1.06 ± 0.012
same,relative viability,[1]; 0.3704 µM,1.11 ± 0.028
same,relative viability,[1]; 1.111 µM,1.22 ± 0.047
same,relative viability,[1]; 3.333 µM,1.35 ± 0.028
same,relative viability,[1]; 10 µM,1.29 ± 0.094
same,relative viability,[2]; 0.00017 µM,1.01 ± 0.04
same,relative viability,[2]; 0.00051 µM,1.03 ± 0.014
same,relative viability,[2]; 0.00152 µM,1.037 ± 0.0068
same,relative viability,[2]; 0.00457 µM,0.985 ± 0.059
same,relative viability,[2]; 0.01372 µM,1.033 ± 0.0011
same,relative viability,[2]; 0.04115 µM,1.03 ± 0.03
same,relative viability,[2]; 0.1235 µM,1.02 ± 0.013
same,relative viability,[2]; 0.3704 µM,0.996 ± 0.037
same,relative viability,[2]; 1.111 µM,0.999 ± 0.065
same,relative viability,[2]; 3.333 µM,0.932 ± 0.076
same,relative viability,[2]; 10 µM,0.767 ± 0.026
same,relative viability,[3]; 0.00017 µM,1.03 ± 0.028
same,relative viability,[3]; 0.00051 µM,1.05 ± 0.034
same,relative viability,[3]; 0.00152 µM,1.01 ± 0.044
same,relative viability,[3]; 0.00457 µM,1.012 ± 0.01
same,relative viability,[3]; 0.01372 µM,1.04 ± 0.023
same,relative viability,[3]; 0.04115 µM,1.07 ± 0.046
same,relative viability,[3]; 0.1235 µM,1.04 ± 0.031
same,relative viability,[3]; 0.3704 µM,1.08 ± 0.033
same,relative viability,[3]; 1.111 µM,1.09 ± 0.025
same,relative viability,[3]; 3.333 µM,1.09 ± 0.032
same,relative viability,[3]; 10 µM,0.988 ± 0.04
same,relative viability,[4]; 0.00017 µM,1.09 ± 0.023
same,relative viability,[4]; 0.00051 µM,1.06 ± 0.029
same,relative viability,[4]; 0.00152 µM,1.08 ± 0.025
same,relative viability,[4]; 0.00457 µM,1.07 ± 0.035
same,relative viability,[4]; 0.01372 µM,1.05 ± 0.021
same,relative viability,[4]; 0.04115 µM,1.06 ± 0.045
same,relative viability,[4]; 0.1235 µM,1.07 ± 0.022
same,relative viability,[4]; 0.3704 µM,1.07 ± 0.033
same,relative viability,[4]; 1.111 µM,1.07 ± 0.038
same,relative viability,[4]; 3.333 µM,1.02 ± 0.071
same,relative viability,[4]; 10 µM,0.671 ± 0.016
same,relative viability,[5]; 0.00017 µM,0.973 ± 0.036
same,relative viability,[5]; 0.00051 µM,0.99 ± 0.046
same,relative viability,[5]; 0.00152 µM,0.968 ± 0.025
same,relative viability,[5]; 0.00457 µM,0.963 ± 0.025
same,relative viability,[5]; 0.01372 µM,0.984 ± 0.035
same,relative viability,[5]; 0.04115 µM,0.981 ± 0.044
same,relative viability,[5]; 0.1235 µM,1 ± 0.051
same,relative viability,[5]; 0.3704 µM,1.01 ± 0.052
same,relative viability,[5]; 1.111 µM,1 ± 0.053
same,relative viability,[5]; 3.333 µM,0.986 ± 0.043
same,relative viability,[5]; 10 µM,0.227 ± 0.011
same,relative viability,[6]; 0.00017 µM,0.913 ± 0.024
same,relative viability,[6]; 0.00051 µM,0.9465 ± 0.0071
same,relative viability,[6]; 0.00152 µM,0.9008 ± 0.0041
same,relative viability,[6]; 0.00457 µM,0.918 ± 0.016
same,relative viability,[6]; 0.01372 µM,0.9 ± 0.011
same,relative viability,[6]; 0.04115 µM,0.94 ± 0.018
same,relative viability,[6]; 0.1235 µM,0.945 ± 0.029
same,relative viability,[6]; 0.3704 µM,0.971 ± 0.018
same,relative viability,[6]; 1.111 µM,0.981 ± 0.029
same,relative viability,[6]; 3.333 µM,0.769 ± 0.0099
same,relative viability,[6]; 10 µM,0.388 ± 0.021
same,relative viability,[7]; 0.00017 µM,0.984 ± 0.043
same,relative viability,[7]; 0.00051 µM,1.01 ± 0.039
same,relative viability,[7]; 0.00152 µM,1.02 ± 0.043
same,relative viability,[7]; 0.00457 µM,0.97 ± 0.062
same,relative viability,[7]; 0.01372 µM,0.9884 ± 0.0051
same,relative viability,[7]; 0.04115 µM,1.02 ± 0.029
same,relative viability,[7]; 0.1235 µM,1.02 ± 0.081
same,relative viability,[7]; 0.3704 µM,1.04 ± 0.017
same,relative viability,[7]; 1.111 µM,0.989 ± 0.04
same,relative viability,[7]; 3.333 µM,0.796 ± 0.085
same,relative viability,[7]; 10 µM,0.102 ± 0.0019
same,relative viability,[8]; 0.00017 µM,1.08 ± 0.056
same,relative viability,[8]; 0.00051 µM,1.09 ± 0.069
same,relative viability,[8]; 0.00152 µM,1.11 ± 0.032
same,relative viability,[8]; 0.00457 µM,1.12 ± 0.081
same,relative viability,[8]; 0.01372 µM,1.12 ± 0.044
same,relative viability,[8]; 0.04115 µM,1.12 ± 0.06
same,relative viability,[8]; 0.1235 µM,1.12 ± 0.045
same,relative viability,[8]; 0.3704 µM,1.15 ± 0.066
same,relative viability,[8]; 1.111 µM,1.17 ± 0.026
same,relative viability,[8]; 3.333 µM,1.09 ± 0.022
same,relative viability,[8]; 10 µM,0.827 ± 0.03
same,relative viability,[9]; 0.00017 µM,1.09 ± 0.013
same,relative viability,[9]; 0.00051 µM,1.09 ± 0.043
same,relative viability,[9]; 0.00152 µM,1.05 ± 0.012
same,relative viability,[9]; 0.00457 µM,1.076 ± 0.0086
same,relative viability,[9]; 0.01372 µM,1.1 ± 0.082
same,relative viability,[9]; 0.04115 µM,1.07 ± 0.025
same,relative viability,[9]; 0.1235 µM,1.08 ± 0.018
same,relative viability,[9]; 0.3704 µM,1.08 ± 0.043
same,relative viability,[9]; 1.111 µM,1.13 ± 0.013
same,relative viability,[9]; 3.333 µM,1.11 ± 0.037
same,relative viability,[9]; 10 µM,0.965 ± 0.025
same,relative viability,[10]; 0.00017 µM,0.9962 ± 0.0097
same,relative viability,[10]; 0.00051 µM,1.01 ± 0.013
same,relative viability,[10]; 0.00152 µM,1 ± 0.042
same,relative viability,[10]; 0.00457 µM,1.01 ± 0.012
same,relative viability,[10]; 0.01372 µM,1.05 ± 0.023
same,relative viability,[10]; 0.04115 µM,1.04 ± 0.021
same,relative viability,[10]; 0.1235 µM,1.08 ± 0.028
same,relative viability,[10]; 0.3704 µM,1.14 ± 0.047
same,relative viability,[10]; 1.111 µM,1.19 ± 0.037
same,relative viability,[10]; 3.333 µM,1.14 ± 0.049
same,relative viability,[10]; 10 µM,1.01 ± 0.025
same,relative viability,[11]; 0.00017 µM,1.06 ± 0.033
same,relative viability,[11]; 0.00051 µM,1.03 ± 0.027
same,relative viability,[11]; 0.00152 µM,1.01 ± 0.018
same,relative viability,[11]; 0.00457 µM,1.01 ± 0.032
same,relative viability,[11]; 0.01372 µM,1.04 ± 0.027
same,relative viability,[11]; 0.04115 µM,1.06 ± 0.028
same,relative viability,[11]; 0.1235 µM,1.04 ± 0.049
same,relative viability,[11]; 0.3704 µM,1.05 ± 0.032
same,relative viability,[11]; 1.111 µM,1.08 ± 0.02
same,relative viability,[11]; 3.333 µM,1.042 ± 0.0079
same,relative viability,[11]; 10 µM,0.887 ± 0.021
same,relative viability,[12]; 0.00017 µM,1.03 ± 0.026
same,relative viability,[12]; 0.00051 µM,1.04 ± 0.02
same,relative viability,[12]; 0.00152 µM,1.04 ± 0.068
same,relative viability,[12]; 0.00457 µM,1.04 ± 0.03
same,relative viability,[12]; 0.01372 µM,1.03 ± 0.073
same,relative viability,[12]; 0.04115 µM,1.05 ± 0.083
same,relative viability,[12]; 0.1235 µM,1.07 ± 0.081
same,relative viability,[12]; 0.3704 µM,1.1 ± 0.059
same,relative viability,[12]; 1.111 µM,1.117 ± 0.0058
same,relative viability,[12]; 3.333 µM,1.099 ± 0.008
same,relative viability,[12]; 10 µM,1.01 ± 0.018
